Reference: patent US4668698A, “[(4-phenyl-1,3-dioxan-cis-5-yl)alkyl]phenylalkanoic acid derivatives” (Imperial Chemical Industries PLC, priority 1983, dated 1987)

Tests used:
[1] = test system: rabbit aortal strip (TXA2 mimetic agent U46619 as agonist); assay: rabbit aortal strip model, antagonism of the TXA2 mimetic U46619 (test a); assay type: cell-based
Source text: (a) The rabbit aortal strip model devised by Piper and Vane (Nature, 1969, 223, 29-35) using as agonist the TXA2 mimetic agent known as U46619 (R. L. Jones et alia in "Chemistry, Biochemistry and Pharmacological Activity of Prostanoids", eds. S. M. Roberts and F. Scheinmann, at p. 211; Pergamon Press, 1979);

[2] = test system: blood pressure at the carotid artery; assay: hypertensive effect of U46619 in anaesthetised rats (test d); assay type: in vivo, rats (Alderley Park strain); conditions: Rattus norvegicus, iv; intravenously via the jugular vein, anaesthetised male rats, n=3; read-out: ED50 (dose necessary to produce 50% of the maximum hypertensive effect)
Method: (d) Male rats (Alderley Park strain) are anaesthetised with sodium pentobarbital and blood pressure is monitored at the carotid artery. The TXA2 mimetic agent U46619 is administered intravenously via the jugular vein and an ED50 (dose necessary to produce 50% of the maximum hypertensive effect) is established (n=3). The ED50 for U46619 is approximately 5 μg/kg. A test compound is then administered either intravenously via the jugular vein or orally via a cannula directly into the stomach and the animal challenged with an ED50 dose of U46619, five minutes after dosing with test compound and then successively every ten minutes until the hypertensive effect of U46619 is no longer blocked.

Structure (SMILES)	pA2 [1]	ED50 [2]
CC1(C)OC[C@H](Cc2ccccc2CCCC(=O)O)[C@H](c2ccccc2O)O1 (relative stereo) [Example 3, 4-(o-[2,2-dimethyl-4-o-hydroxyphenyl-1,3 dioxan cis-5-ylmethyl]phenyl)butanoic acid]	6.19	
CCCCC[C@H](O)/C=C/[C@@H]1[C@@H](C/C=C\CCCC(=O)O)[C@H]2CO[C@@H]1C2 [Example U46619]		~5 µg/kg
